Assay results taken from patent US20100055099A1, “Diagnostics and Treatments for VEGF-Independent Tumors” (priority 2008, published 2010).

Legend:
[1] = system: WT.c cell line; assay: Cell migration assay, response to HGF; type: cell-based, mouse; conditions: HGF 40 ng/ml, 18 hours, WT.c cells
Excerpt: (§1) Primary epithelial cells, designated as K0.1, K0.2, K0.3 and K0.4, were isolated from PyMT.epiVEGF−/− tumors. Primary epithelial cells, designated as WT. 1, WT.2, WT.3, WT.4 and WT.5, were isolated from in PyMT.epiVEGF+/+ tumors. WT.c is epithelial cells from a cell line created from PyMT.VEGF+/+.loxP tumor. KO.c is epithelial cells from a cell line created from PyMT.VEGF+/+.loxP tumors wherein VEGF was knocked out by Adenovirus expressing Cre-recombinase (Adeno-Cre) infection in vitro. Epithelial-specific Cre-loxP recombination was confirmed through immunocytochemistry with anti-Cre recombinase antibody. VEGF expression level was not detectable in Ko.c cell lines by ELISA.
(§2) Migration assays were performed using BD Falcon™ FluoroBlok™ 24-Multiwell Insert System, 8 um pore size (BD Biosciences, Bedford, Mass.). The plates were coated with 5 ug/ml Fibronectin (Sigma) for 2 hours at 37° C. Cells in 300 μl assay medium (0.5% FBS, DMEM/F12) were added to the upper chamber. HGF 40 ng/ml in 750 ul assay medium was added to the lower chamber, and cells were incubated at 37° C. for 18 hours. Cells on the lower surface were fixed in MeOH and stained with YO-PRO-1 (Molecular Probes, Eugene, Oreg.). Images were acquired and analyzed using the ImageXpress Micro platform (MDS Analytical; Sunnyvale, Calif.). The Count Nuclei application in Metamorph was used to identify and count migrated cells.

[2] = system: primary epithelial cells from PyMT.epiVEGF+/+ tumors; assay: Cell migration assay, response to HGF; type: cell-based, mouse; conditions: HGF 40 ng/ml, 18 hours, primary tumors from PyMT.epiVEGF+/+ mice
Excerpt: as §1, §2

[3] = system: KO.c cell line; assay: Cell migration assay, response to HGF; type: cell-based, mouse; conditions: HGF 40 ng/ml, 18 hours, KO.c cells
Excerpt: as §1, §2

[4] = system: primary epithelial cells from PyMT.epiVEGF−/− tumors; assay: Cell migration assay, response to HGF; type: cell-based, mouse; conditions: HGF 40 ng/ml, 18 hours, primary tumors from PyMT.epiVEGF−/− mice
Excerpt: as §1, §2

[5] = system: xenograft models; conditions: most xenograft models tested; cited from earlier work

Substance	fold increase in migration with HGF treatment [1] [fold]	average increase in migratory response to HGF [2] [fold]	fold increase in migration with HGF treatment [3] [fold]	average increase in migratory response to HGF [4] [fold]	tumor angiogenesis [5]	tumor growth [5]
HGF: hepatocyte growth factor, added at 40 ng/ml to the lower chamber in the migration assay	1.5	1.8	2.3	2.5	–	–
bevacizumab: humanized anti-VEGF monoclonal antibody	–	–	–	–	reduced	significantly inhibited
